Laboratory results reported in ChEMBL document CHEMBL1124698, “Squalene analogues containing isopropylidene mimics as potential inhibitors of pig liver squalene epoxidase and oxidosqualene cyclase” (J Med Chem, 1989).

Tests used:
Squalene monooxygenase = Squalene monooxygenase (Homo sapiens, UniProt Q14534); experiment: Inhibitory activity against Squalene Epoxidase in pig liver; NI-No inhibitory effect at 400 uM; set-up: species or system Sus scrofa; conditions: target entry is the homologue from another species
Sequence of Squalene monooxygenase (Q14534 whole entry): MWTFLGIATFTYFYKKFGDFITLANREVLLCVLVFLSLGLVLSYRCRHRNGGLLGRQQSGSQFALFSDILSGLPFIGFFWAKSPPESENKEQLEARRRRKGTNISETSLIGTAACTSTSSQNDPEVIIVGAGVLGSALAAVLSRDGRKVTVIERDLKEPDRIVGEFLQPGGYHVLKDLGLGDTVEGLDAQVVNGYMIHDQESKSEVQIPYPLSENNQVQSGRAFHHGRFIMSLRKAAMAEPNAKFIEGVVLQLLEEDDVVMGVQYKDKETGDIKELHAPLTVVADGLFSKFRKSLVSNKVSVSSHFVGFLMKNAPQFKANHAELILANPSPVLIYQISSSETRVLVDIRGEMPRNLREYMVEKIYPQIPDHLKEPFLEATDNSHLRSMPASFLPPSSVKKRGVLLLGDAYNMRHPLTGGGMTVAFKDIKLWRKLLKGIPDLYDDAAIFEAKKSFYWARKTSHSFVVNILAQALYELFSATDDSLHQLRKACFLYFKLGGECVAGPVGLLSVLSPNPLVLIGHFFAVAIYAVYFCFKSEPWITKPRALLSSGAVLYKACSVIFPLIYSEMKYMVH

Lanosterol synthase = biological target: T1, Lanosterol synthase (Rattus norvegicus, UniProt P48450); experiment: Inhibitory activity against Oxidosqualene-lanosterol cyclase in pig liver; NI-No inhibitory effect at 400 uM; set-up: species or system Sus scrofa; conditions: target entry is the homologue from another species
T1 sequence (P48450 whole entry): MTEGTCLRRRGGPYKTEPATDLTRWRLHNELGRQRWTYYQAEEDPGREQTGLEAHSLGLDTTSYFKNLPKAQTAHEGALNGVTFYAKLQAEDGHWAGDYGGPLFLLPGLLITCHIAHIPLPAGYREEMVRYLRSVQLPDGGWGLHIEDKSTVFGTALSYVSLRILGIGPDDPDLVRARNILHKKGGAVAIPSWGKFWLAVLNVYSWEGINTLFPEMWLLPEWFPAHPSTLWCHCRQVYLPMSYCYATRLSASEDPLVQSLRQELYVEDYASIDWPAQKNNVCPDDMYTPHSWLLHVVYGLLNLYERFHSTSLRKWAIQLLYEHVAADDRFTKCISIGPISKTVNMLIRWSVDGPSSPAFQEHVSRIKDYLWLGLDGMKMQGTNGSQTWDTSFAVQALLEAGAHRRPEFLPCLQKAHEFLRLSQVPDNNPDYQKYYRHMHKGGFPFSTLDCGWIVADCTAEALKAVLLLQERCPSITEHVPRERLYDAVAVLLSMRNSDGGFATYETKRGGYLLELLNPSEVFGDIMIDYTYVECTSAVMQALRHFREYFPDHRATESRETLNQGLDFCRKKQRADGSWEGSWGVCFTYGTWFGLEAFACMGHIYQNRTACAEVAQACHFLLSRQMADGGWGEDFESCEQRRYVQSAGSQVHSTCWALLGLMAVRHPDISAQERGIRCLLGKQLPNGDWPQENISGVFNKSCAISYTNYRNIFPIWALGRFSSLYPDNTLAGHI

IC50 (Squalene monooxygenase) | IC50 (Lanosterol synthase) | Structure (SMILES)
No inhibition | – | C#CCC/C(C)=C/CC/C(C)=C/CC/C=C(\C)CC/C=C(\C)CCC=C(C)C
No inhibition | No inhibition | C=C=CCC/C(C)=C/CC/C(C)=C/CC/C=C(\C)CC/C=C(\C)CCC=C(C)C
